Test results reported in the NIST ThermoML archive (doi:10.1016/j.tca.2014.10.015).
Several values for one entry are separate records, joined by “and”; a condition that tells them apart may be missing. Equal values may be shown once. ± gives the expanded uncertainty stated by the source.

Conditions: Liquid; for vapor or sublimation pressure: Transpiration method; for mass density: 293 K, 101.33 kPa, Pycnometric method

CCCCCCCCN=[N+]=[N-] [1-azidooctane]
vapor or sublimation pressure (276.2 K): 0.00625 ± 0.00035 kPa
vapor or sublimation pressure (279.8 K): 0.00904 ± 0.00048 kPa
vapor or sublimation pressure (282.5 K): 0.01172 ± 0.00062 kPa
vapor or sublimation pressure (285.8 K): 0.01548 ± 0.00082 kPa
vapor or sublimation pressure (289.4 K): 0.02119 ± 0.0011 kPa
vapor or sublimation pressure (292.2 K): 0.02751 ± 0.0014 kPa
mass density: 840 ± 20 kg/m3
vapor or sublimation pressure (293.2 K): 0.02911 ± 0.0015 kPa
vapor or sublimation pressure (296.2 K): 0.03707 ± 0.0019 kPa
vapor or sublimation pressure (300.2 K): 0.04808 ± 0.0025 kPa
vapor or sublimation pressure (302.1 K): 0.05805 ± 0.0031 kPa
vapor or sublimation pressure (303.1 K): 0.06504 ± 0.0034 kPa
vapor or sublimation pressure (307 K): 0.08345 ± 0.0044 kPa
vapor or sublimation pressure (310 K): 0.1089 ± 0.0056 kPa
vapor or sublimation pressure (313.9 K): 0.1355 ± 0.0071 kPa
vapor or sublimation pressure (317.9 K): 0.188 ± 0.0099 kPa
vapor or sublimation pressure (320.9 K): 0.2406 ± 0.012 kPa
vapor or sublimation pressure (321.8 K): 0.2385 ± 0.012 kPa
vapor or sublimation pressure (323.9 K): 0.2592 ± 0.014 kPa and 0.2683 ± 0.014 kPa
vapor or sublimation pressure (325.8 K): 0.3237 ± 0.018 kPa and 0.3236 ± 0.018 kPa and 0.3135 ± 0.017 kPa

CCCCCCCCCCN=[N+]=[N-] [1-decyl azide]
mass density: 870 ± 20 kg/m3
vapor or sublimation pressure (299.1 K): 0.00431 ± 0.00024 kPa
vapor or sublimation pressure (304 K): 0.00666 ± 0.00035 kPa
vapor or sublimation pressure (309 K): 0.01017 ± 0.00053 kPa
vapor or sublimation pressure (314 K): 0.01489 ± 0.00078 kPa
vapor or sublimation pressure (318.9 K): 0.02152 ± 0.0011 kPa
vapor or sublimation pressure (324 K): 0.03305 ± 0.0017 kPa
vapor or sublimation pressure (329 K): 0.04744 ± 0.0025 kPa
vapor or sublimation pressure (333.9 K): 0.06769 ± 0.0035 kPa
vapor or sublimation pressure (339 K): 0.0914 ± 0.0048 kPa
vapor or sublimation pressure (344.1 K): 0.1347 ± 0.0069 kPa
